The values below come from patent publication US20150283127A1, “SAQUINAVIR-NO FOR IMMUNOMODULATION” (ONCONOX APS, priority 2012, published 2015).

This assay relates to experimental autoimmune uveoretinitis (EAU). The experiment in a line: Experimental autoimmune uveoretinitis (EAU) in the Wistar rat, histology. In kind it is in vivo. The method, then:
Female Wistar Rats n=28 (8 weeks-old) were purchased from Pasteur Institute (Algiers, Algeria). These rats were acclimated to their new environment for one week before the start of experiments and kept under normal conditions with a 12 h dark/light cycle and free access to food and water.
These animals were divided into four groups:
Control group (n=6) it consisted in non treated animals
Vehicle group (n=6) received a daily intraperitoneal injection of DMSO at 20% starting from the day of immunization.
Retinal crude extract immunized rats (referred to as EAU group n=8) received a single subcutaneous injection of 200 μL with Retinal Crude Extract emulsified in complete Freund's adjuvant; CFA (v/v) and were left untreated.
SaqNO (reference) treated rats (n=8) they received a daily intraperitoneal injection of SaqNO at 10 μg/kg starting from the day of immunization.
Fresh bovine eyes (n=20) were used in the experiments. They were cut just in posterior to the ora serrata, the vitreous was then removed without causing retinal detachment. The retinas were removed carefully and put in PBS, pH 7.4. They were then subjected to three successive thermal shock (−20° C. and +37°) in order to release retinal antigens. The retinal crude extract was obtained after a centrifugation at 4000 rpm for 15 min and conserved at −20° C. until further utilization.
[…]. In parallel, all rats from each group were also sacrificed.
For histopathological analysis, eyes were enucleated from each group and fixed in 10% phosphate-buffered formaldehyde. Tissue sections of 5 μm thickness were stained with hematoxylin and eosin (H&E). Sections were examined using a standard microscope (Zeiss) and pictures were taken using a digital camera at ×40 resolution Histological criteria were based on the degree of architectural changes. The histological scores were assessed semi-quantitatively by microscopic examination as follows:
No morphological changes, 0; minimal morphological changes of the outer nuclear layer (ONL) in retina, 1; atrophy of INL, 2; disappearance of INL, 3; and damage of total retinal layers, 4.

SMILES strings stand for the structures.

In the case of `CC(C)(C)NC(=O)C1C[C@@H]2CCCC[C@@H]2CN1CC(O[N+](=O)[O-])[C@H](Cc1ccccc1)NC(=O)C(CC(N)=O)NC(=O)c1ccc2ccccc2n1` (stereo partly shown) [Saq-NO, nitric ester of Saquinavir], the Uveitis clinical score result (10 μg/kg daily, P<0.05) is “improved significantly”. In addition, the “Histological structure of retinal tissue” value (10 μg/kg i.p. daily from immunization, day 14) was “ameliorated significantly”. Besides, where the note is “10 μg/kg, P<0.05”, the Histopathological scores entry is listed as “ameliorated”. Besides, the “Development of EAU” value (prophylactic treatment) was “prevents development of EAU”.
